Measured values reported in ChEMBL document CHEMBL5316339, “Discovery of a Series of Substituted 1H-((1,2,3-Triazol-4-yl)methoxy)pyrimidines as Brain Penetrants and Potent GluN2B-Selective Negative Allosteric Modulators” (J Med Chem, 2023).
Values after ≈ are worked out from the molar mass of the structure shown.

Tests used:
MDR1 (P-gp) = test: Efflux ratio of apparent permeability from basolateral to apical side over apical to basolateral side in MDCK-MDR1 cells at 5 uM incubated for 60 mins by LC-MS/MS analysis; format: ADME, cell-based, Canis lupus familiaris; settings: dog
[1] = biological target: Glutamate receptor ionotropic, NMDA 2B (Rattus norvegicus, UniProt Q00960); test: Displacement of 3-(3H) 1-(azetidin-1-yl)-2-(6- (4-fluoro-3-methyl-phenyl)pyrrolo-[…] pyridin-1yl)ethanone from GluN2B receptor in rat cortical membrane assessed as inhibition constant incubated for 2 hrs under shaking condition by liquid scintillator counter analysis; format: cell membranes, Cortex
[2] = Thermodynamic solubility in aqueous phosphate buffer at pH 7; format: physicochemical; settings: read-out: Therm_solubility
[3] = biological target: Voltage-gated inwardly rectifying potassium channel KCNH2 (Homo sapiens, UniProt Q12809); test: Displacement of [3H]dofetilide from human ERG expressed in HEK293 cells; format: toxicity, cell-based
[4] = Thermodynamic solubility in aqueous phosphate buffer at pH 2; format: physicochemical; settings: read-out: Therm_solubility
[5] = biological target: Glutamate NMDA receptor; GRIN1/GRIN2B (Homo sapiens, UniProt Q05586+Q13224); test: Negative allosteric modulation of human GluN1A/GluN2B receptor expressed in T-REX-CHO cells preincubated for 5 mins followed by glutamate and glycine addition and measured after 5 mins by FLIPR assay; format: cell-based
Cytochrome P450 2C19 = Cytochrome P450 2C19 (Homo sapiens, UniProt P33261); test: Inhibition of CYP2C19 in human liver microsomes incubated for 10 mins by LC-MS/MS analysis; format: ADME, Microsome
Cytochrome P450 2C8 = biological target: T1, Cytochrome P450 2C8 (Homo sapiens, UniProt P10632); test: Inhibition of CYP2C8 in human liver microsomes incubated for 10 mins by LC-MS/MS analysis; format: ADME, Microsome
T1 sequence (P10632 whole entry): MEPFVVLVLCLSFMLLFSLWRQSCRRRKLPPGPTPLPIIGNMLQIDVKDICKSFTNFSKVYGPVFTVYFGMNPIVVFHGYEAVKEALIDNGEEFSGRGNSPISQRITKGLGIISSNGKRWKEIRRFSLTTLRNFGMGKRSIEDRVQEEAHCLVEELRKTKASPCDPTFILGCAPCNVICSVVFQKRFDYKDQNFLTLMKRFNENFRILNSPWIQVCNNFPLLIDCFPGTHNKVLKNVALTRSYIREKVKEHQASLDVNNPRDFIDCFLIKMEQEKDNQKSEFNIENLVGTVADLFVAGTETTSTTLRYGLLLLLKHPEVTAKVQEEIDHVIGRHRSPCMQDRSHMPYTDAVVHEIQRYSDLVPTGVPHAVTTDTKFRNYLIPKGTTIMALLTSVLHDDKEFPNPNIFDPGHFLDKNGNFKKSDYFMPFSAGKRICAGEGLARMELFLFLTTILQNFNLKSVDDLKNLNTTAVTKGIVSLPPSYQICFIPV

Cytochrome P450 2C9 = Cytochrome P450 2C9 (Homo sapiens, UniProt P11712); test: Inhibition of CYP2C9 in human liver microsomes incubated for 10 mins by LC-MS/MS analysis; format: ADME, Microsome
Cytochrome P450 3A4 = Cytochrome P450 3A4 (Homo sapiens, UniProt P08684); test: Inhibition of CYP3A4 in human liver microsomes incubated for 10 mins by LC-MS/MS analysis; format: ADME, Microsome
Cytochrome P450 1A2 = biological target: T2, Cytochrome P450 1A2 (Homo sapiens, UniProt P05177); test: Inhibition of CYP1A2 in human liver microsomes incubated for 10 mins by LC-MS/MS analysis; format: ADME, Microsome
T2 sequence (P05177 whole entry): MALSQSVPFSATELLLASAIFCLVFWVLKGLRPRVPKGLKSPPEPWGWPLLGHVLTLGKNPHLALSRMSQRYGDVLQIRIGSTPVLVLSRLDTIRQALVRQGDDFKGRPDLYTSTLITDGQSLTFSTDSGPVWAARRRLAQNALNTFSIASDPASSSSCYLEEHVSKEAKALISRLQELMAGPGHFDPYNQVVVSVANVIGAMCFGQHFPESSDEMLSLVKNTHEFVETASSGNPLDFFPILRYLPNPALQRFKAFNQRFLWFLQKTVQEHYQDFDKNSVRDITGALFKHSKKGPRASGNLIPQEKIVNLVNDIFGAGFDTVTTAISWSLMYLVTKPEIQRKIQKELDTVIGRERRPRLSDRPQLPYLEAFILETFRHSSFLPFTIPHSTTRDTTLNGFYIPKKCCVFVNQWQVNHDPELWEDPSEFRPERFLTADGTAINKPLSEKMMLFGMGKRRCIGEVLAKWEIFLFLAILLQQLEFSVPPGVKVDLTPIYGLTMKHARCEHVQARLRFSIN

Cytochrome P450 2D6 = Cytochrome P450 2D6 (Homo sapiens, UniProt P10635); test: Inhibition of CYP2D6 in human liver microsomes incubated for 10 mins by LC-MS/MS analysis; format: ADME, Microsome
[6] = Metabolic stability in human liver microsomes assessed as extraction ratio; format: ADME, Microsome; settings: read-out: ERH
[7] = Metabolic stability in rat liver microsomes assessed as extraction ratio; format: ADME, Microsome; settings: read-out: ERH

Cytochrome P450 2C19, sequence (P33261 whole entry): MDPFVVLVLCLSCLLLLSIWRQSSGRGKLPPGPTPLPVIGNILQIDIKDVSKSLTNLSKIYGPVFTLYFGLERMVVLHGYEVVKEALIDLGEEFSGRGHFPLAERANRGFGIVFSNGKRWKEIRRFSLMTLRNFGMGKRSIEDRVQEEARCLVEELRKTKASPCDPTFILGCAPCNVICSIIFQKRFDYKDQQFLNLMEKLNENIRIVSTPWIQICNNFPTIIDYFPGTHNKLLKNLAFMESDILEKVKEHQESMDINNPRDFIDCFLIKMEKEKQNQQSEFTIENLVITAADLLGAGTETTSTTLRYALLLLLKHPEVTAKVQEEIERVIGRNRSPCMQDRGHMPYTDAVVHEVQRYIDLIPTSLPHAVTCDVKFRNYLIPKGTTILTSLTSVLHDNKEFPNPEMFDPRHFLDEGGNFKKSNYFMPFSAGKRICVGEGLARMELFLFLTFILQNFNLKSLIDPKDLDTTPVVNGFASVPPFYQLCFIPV
Cytochrome P450 2D6, sequence (P10635 whole entry): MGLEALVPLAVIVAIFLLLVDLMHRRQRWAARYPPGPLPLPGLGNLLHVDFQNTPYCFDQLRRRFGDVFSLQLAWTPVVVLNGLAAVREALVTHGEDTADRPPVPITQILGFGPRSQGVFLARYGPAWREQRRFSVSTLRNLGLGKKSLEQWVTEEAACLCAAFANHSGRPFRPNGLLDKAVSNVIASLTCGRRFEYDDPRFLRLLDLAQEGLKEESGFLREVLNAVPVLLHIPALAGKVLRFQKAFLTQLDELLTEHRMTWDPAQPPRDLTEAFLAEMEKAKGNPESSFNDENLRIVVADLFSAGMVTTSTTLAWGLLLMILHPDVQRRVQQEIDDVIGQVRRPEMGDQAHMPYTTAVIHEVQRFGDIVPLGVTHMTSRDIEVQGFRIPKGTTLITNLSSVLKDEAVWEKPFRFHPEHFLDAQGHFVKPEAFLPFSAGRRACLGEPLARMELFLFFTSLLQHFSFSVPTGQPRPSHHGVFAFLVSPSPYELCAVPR
Glutamate NMDA receptor; GRIN1/GRIN2B, sequence (Q13224 whole entry, other chains not shown): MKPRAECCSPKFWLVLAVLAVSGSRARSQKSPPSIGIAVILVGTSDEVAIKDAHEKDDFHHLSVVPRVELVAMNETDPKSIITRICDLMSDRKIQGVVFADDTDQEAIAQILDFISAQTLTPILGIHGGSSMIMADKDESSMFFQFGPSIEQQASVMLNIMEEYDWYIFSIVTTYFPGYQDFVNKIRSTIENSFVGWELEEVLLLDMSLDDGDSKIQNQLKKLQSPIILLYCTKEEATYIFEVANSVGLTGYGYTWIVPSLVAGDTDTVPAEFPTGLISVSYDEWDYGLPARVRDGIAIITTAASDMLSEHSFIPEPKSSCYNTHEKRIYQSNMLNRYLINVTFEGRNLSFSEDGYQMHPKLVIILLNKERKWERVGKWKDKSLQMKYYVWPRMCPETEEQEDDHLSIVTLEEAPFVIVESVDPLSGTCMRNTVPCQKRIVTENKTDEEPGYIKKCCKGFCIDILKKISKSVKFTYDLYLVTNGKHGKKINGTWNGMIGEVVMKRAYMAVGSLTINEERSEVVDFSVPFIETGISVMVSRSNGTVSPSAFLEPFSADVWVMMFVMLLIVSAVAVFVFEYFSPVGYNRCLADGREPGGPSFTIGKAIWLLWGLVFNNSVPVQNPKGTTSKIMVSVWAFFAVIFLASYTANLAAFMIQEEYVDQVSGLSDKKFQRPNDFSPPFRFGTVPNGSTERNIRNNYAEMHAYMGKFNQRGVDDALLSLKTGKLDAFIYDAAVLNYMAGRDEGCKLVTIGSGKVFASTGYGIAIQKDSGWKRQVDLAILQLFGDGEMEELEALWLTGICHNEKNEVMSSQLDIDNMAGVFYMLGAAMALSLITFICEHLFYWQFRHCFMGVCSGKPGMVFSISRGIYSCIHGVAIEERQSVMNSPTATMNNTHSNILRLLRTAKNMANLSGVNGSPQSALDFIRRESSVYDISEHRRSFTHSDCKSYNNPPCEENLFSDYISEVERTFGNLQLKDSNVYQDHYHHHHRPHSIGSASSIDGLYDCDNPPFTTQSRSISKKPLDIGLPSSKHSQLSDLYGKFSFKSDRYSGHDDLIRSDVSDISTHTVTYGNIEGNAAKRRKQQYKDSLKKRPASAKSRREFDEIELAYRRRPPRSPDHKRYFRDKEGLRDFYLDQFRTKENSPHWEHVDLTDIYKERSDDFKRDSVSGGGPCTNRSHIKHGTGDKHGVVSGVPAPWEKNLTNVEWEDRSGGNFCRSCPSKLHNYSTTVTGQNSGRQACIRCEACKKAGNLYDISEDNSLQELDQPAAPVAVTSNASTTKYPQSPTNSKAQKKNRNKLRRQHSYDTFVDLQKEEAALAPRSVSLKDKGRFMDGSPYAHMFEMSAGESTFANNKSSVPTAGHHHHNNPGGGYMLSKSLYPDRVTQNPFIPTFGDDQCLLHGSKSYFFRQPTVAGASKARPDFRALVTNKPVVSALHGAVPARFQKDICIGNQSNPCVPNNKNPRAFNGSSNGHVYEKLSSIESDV
Voltage-gated inwardly rectifying potassium channel KCNH2, sequence (Q12809 whole entry): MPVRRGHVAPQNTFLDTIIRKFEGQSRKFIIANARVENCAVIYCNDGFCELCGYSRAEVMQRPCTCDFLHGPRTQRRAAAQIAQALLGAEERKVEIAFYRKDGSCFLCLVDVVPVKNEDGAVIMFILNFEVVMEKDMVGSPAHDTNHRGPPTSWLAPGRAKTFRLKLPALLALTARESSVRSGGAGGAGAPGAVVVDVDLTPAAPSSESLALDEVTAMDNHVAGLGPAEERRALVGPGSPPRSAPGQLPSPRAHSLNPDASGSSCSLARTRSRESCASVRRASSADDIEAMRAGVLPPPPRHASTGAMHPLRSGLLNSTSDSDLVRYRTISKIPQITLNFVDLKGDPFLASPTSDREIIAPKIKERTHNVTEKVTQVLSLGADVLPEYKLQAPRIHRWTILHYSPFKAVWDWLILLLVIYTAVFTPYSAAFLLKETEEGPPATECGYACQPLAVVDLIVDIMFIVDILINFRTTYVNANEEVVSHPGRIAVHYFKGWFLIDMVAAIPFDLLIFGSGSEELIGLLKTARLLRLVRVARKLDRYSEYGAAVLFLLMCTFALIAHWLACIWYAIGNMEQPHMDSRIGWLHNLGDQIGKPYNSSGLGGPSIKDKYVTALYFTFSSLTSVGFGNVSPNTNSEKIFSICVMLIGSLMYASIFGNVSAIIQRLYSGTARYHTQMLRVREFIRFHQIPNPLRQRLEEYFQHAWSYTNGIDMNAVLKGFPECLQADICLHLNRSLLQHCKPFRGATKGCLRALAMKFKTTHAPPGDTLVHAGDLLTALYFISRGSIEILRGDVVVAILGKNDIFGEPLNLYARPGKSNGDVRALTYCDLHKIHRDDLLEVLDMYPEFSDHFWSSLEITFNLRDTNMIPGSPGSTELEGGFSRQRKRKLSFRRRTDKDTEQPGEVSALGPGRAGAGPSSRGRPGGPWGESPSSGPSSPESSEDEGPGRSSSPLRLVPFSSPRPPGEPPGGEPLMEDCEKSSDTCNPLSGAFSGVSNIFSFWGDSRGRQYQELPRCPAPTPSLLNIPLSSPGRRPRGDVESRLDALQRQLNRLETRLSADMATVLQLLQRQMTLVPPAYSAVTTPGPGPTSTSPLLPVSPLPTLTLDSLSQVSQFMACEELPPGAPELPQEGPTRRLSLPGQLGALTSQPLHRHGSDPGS
Glutamate receptor ionotropic, NMDA 2B, sequence (Q00960 whole entry): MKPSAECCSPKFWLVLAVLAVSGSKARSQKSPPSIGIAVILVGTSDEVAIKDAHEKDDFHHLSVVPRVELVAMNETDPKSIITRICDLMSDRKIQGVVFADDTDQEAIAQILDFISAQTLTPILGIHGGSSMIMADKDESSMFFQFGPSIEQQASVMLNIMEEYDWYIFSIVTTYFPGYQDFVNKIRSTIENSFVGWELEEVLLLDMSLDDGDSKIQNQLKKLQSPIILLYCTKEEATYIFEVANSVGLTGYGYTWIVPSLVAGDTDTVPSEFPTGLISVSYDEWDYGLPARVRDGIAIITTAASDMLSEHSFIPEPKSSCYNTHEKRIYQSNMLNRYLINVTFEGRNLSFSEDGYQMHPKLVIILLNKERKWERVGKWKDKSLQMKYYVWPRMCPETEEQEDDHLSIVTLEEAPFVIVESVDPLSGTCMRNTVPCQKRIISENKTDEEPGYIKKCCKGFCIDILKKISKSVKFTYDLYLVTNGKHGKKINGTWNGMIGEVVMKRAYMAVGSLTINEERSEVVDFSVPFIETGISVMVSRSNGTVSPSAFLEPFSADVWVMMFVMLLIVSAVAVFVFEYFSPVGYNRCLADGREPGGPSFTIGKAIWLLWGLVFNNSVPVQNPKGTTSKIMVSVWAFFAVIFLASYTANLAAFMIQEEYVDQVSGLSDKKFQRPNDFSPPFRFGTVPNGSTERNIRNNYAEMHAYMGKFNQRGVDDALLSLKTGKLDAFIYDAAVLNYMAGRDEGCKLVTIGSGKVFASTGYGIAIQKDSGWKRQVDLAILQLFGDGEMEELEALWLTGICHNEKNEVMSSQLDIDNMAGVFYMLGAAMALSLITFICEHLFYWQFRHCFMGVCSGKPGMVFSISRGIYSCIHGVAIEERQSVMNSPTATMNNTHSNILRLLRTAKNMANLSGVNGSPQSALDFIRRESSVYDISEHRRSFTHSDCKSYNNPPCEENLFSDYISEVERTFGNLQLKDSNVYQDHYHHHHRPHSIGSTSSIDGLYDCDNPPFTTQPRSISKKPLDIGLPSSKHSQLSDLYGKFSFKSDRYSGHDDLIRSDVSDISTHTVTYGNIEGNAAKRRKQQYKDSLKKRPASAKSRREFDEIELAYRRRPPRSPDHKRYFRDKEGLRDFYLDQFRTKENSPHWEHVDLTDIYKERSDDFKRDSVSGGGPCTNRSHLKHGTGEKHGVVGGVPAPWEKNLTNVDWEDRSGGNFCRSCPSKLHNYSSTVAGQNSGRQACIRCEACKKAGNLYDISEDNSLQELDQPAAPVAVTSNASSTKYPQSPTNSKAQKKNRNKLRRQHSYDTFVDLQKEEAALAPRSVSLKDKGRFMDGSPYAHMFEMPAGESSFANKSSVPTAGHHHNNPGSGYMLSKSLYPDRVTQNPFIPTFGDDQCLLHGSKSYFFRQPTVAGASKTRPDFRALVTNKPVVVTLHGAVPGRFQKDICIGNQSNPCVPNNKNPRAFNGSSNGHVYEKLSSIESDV

| SMILES | efflux ratio at 1 h, 5 µM (MDR1 (P-gp)) | Ki [1] | solubility thermodynamic [2] | IC50 [3] | solubility thermodynamic [4] | IC50 [5] | IC50 (Cytochrome P450 2C19) | IC50 (Cytochrome P450 2C8) | IC50 (Cytochrome P450 2C9) | IC50 (Cytochrome P450 3A4) | IC50 (Cytochrome P450 1A2) | IC50 (Cytochrome P450 2D6) | hepatic extraction ratio [6] | hepatic extraction ratio [7] |
| --- | --- | --- | --- | --- | --- | --- | --- | --- | --- | --- | --- | --- | --- | --- |
| Nc1nc(OCc2cn(-c3ccc(F)c(OC(F)F)c3)nn2)ncc1F | 3 | 44 nM | 28 µM (≈ 10.4 µg/mL) | > 10000 nM | 560 µM (≈ 207 µg/mL) | 16 nM |  |  |  |  |  |  |  |  |
| FC(F)Oc1cc(-n2cc(Cn3ccnc3)nn2)ccc1Cl | 3.9 | 35 nM |  | > 10000 nM |  | 59 nM | 420 nM | 3400 nM | 1100 nM | 2600 nM | 110 nM | 30 nM |  |  |
| CC(C)(O)c1cnc(OCc2cn(-c3ccc(F)c(OC(F)F)c3)nn2)nc1 | 11.8 | 57 nM | 510 µM (≈ 202 µg/mL) | > 10000 nM | 560 µM (≈ 221 µg/mL) | 49 nM |  |  |  |  |  |  |  |  |
| Cc1cnc(OCc2cn(-c3ccc(Cl)c(OC(F)F)c3)nn2)nc1 |  | 1.3 nM |  | 5600 nM |  | 1.9 nM |  |  |  |  |  |  | 0.83 | 0.51 |
| FC(F)Oc1cc(-n2cc(COc3ccncn3)nn2)ccc1Cl | 1.1 | 900 nM |  |  |  | 840 nM |  |  |  |  |  |  |  |  |
| FC(F)Oc1cc(-n2cc(CNc3ncco3)nn2)ccc1Cl | 1.5 | 810 nM |  | > 10000 nM |  | 390 nM |  |  |  |  | 3400 nM |  |  |  |
| FC(F)Oc1cc(-n2cc(COc3cncnc3)nn2)ccc1Cl |  | 1800 nM |  |  |  | 2500 nM |  |  |  |  |  |  |  |  |
| Cc1ccnc(OCc2cn(-c3ccc(F)c(OC(F)F)c3)nn2)n1 | 0.9 | 13 nM | 70 µM (≈ 24.6 µg/mL) | > 10000 nM | 92 µM (≈ 32.3 µg/mL) | 8.3 nM |  |  |  |  |  |  |  |  |
| Fc1ccc(-n2cc(COc3ncc(N4CCC4)cn3)nn2)cc1OC(F)F | 1 | 6.8 nM | < 4 µM | > 10000 nM | 11 µM (≈ 4.32 µg/mL) | 11 nM |  |  |  |  |  |  |  |  |
| Fc1ccc(-n2cc(COc3nccc(N4CC(F)C4)n3)nn2)cc1OC(F)F | 2.6 | 14 nM | < 4 µM | > 10000 nM | > 400 µM | 16 nM |  |  |  |  |  |  |  |  |
| Fc1cccnc1OCc1cn(C2CCC(Cl)C(OC(F)F)C2)nn1 (stereo not drawn) |  | 889 nM |  |  |  | 130 nM | 5300 nM |  |  |  | 5200 nM | 2200 nM |  |  |
| Cc1cnc(OCc2cn(-c3cccc(C(F)F)c3)nn2)nc1 |  | 65 nM | 22 µM (≈ 6.98 µg/mL) | > 10000 nM | 17 µM (≈ 5.39 µg/mL) | 25 nM |  |  |  |  |  |  |  |  |
| C[C@@H](Oc1ncccn1)c1cn(-c2ccc(Cl)c(OC(F)F)c2)nn1 |  | 67 nM |  |  |  |  |  |  |  |  |  |  | 0.59 | < 0.17 |
| FC(F)Oc1cc(-n2cc(CNc3ncccn3)nn2)ccc1Cl | 1.1 | 560 nM |  | > 10000 nM |  | 360 nM | > 10000 nM | > 10000 nM | > 10000 nM | > 10000 nM | > 10000 nM | > 10000 nM |  |  |
| Cc1cnc(OCc2nnn(-c3cccc(C(F)F)c3)c2C)nc1 |  | 3500 nM | 320 µM (≈ 106 µg/mL) |  | 210 µM (≈ 69.6 µg/mL) | 1200 nM |  |  |  |  |  |  |  |  |
| FC(F)Oc1cc(-n2cc(CNc3ccccn3)nn2)ccc1Cl | 1 | 630 nM |  | 8000 nM |  | 500 nM | 7900 nM |  |  |  |  |  |  |  |
| FC(F)Oc1cc(-n2cc(COc3cccnn3)nn2)ccc1Cl |  | 1870 nM |  |  |  | 580 nM |  |  |  |  |  |  |  |  |
| CNc1ccnc(OCc2cn(-c3ccc(F)c(OC(F)F)c3)nn2)n1 | 7.7 | 10 nM | 24 µM (≈ 8.79 µg/mL) | > 10000 nM | > 400 µM | 7.8 nM |  |  |  |  |  |  |  |  |
| FC(F)Oc1cc(-n2cc(COc3cnccn3)nn2)ccc1Cl | 0.91 | 680 nM |  |  |  | 600 nM |  |  |  |  |  |  |  |  |
| Cc1cnc(OCc2cn(-c3ccnc(C)c3)nn2)nc1 | 1.2 | 1900 nM | 530 µM (≈ 150 µg/mL) |  | 560 µM (≈ 158 µg/mL) | 770 nM |  |  |  |  |  |  |  |  |
